{
  "source": "paper PMC7184563",
  "about": "(Journal of Medicinal Chemistry, 2020)",
  "key": {"[1]": {"assay_type": "in vivo, mouse", "conditions": "1 mg/kg iv and 5 mg/kg po, after dosing and 24 h after dose"}, "[2]": {"test": "PK study in SCID mouse, po", "assay_type": "in vivo", "conditions": "15 mg/kg po"}, "BCL6 levels in tumor": {"target": "BCL6 levels in tumor (Homo sapiens, UniProt P41182)", "test": "PK/PD study in OCI-Ly1 DLBCL xenograft model", "conditions": "single dose 15 mg/kg po"}, "BCL6 BTB": {"target": "BCL6 BTB (Homo sapiens, UniProt P41182)", "test": "biochemical", "conditions": "BCL6 IC50 (FP), geometric mean"}, "HPLC solubility assay": {"test": "HPLC solubility assay", "assay_type": "physicochemical", "conditions": "kinetic solubility by HPLC in PBS buffer, 1% DMSO, pH 7.4"}, "PAMPA permeability": {"test": "PAMPA permeability", "assay_type": "in vitro ADME"}, "Microsomal clearance": {"test": "Microsomal clearance", "assay_type": "in vitro ADME"}, "BCL6 [3]": {"target": "T1, BCL6 (Homo sapiens, UniProt P41182)", "assay_type": "cell-based", "conditions": "SU-DHL-4"}, "[4]": {"test": "Microsomal clearance assay, mouse liver microsomes", "assay_type": "in vitro ADME"}, "BCL6 [5]": {"target": "T1, BCL6", "test": "Western blot of BCL6 protein levels, SU-DHL-4 cells", "assay_type": "cell-based", "conditions": "4 h at 37 °C"}, "BCL6 [6]": {"target": "T1, BCL6", "test": "Western blot of BCL6 protein levels, OCI-Ly1 cells", "assay_type": "cell-based", "conditions": "4 h at 37 °C"}},
  "data": [
    {"smiles": "C[C@@H]1CN(c2ncc(Cl)c(Nc3ccc4c(c3)n(CCC(C)(C)O)c(=O)n4C)n2)C[C@H](C)C1(F)F", "note": "[Compound 1, 5-((5-Chloro-2-((3R,5S)-4,4-difluoro-3,5-dimethylpiperidin-1-yl)pyrimidin-4-yl)amino)-3-(3-hydroxy-3-methylbutyl)-1-methyl-1,3-dihydro-2H-benzo[d]imidazol-2-one]", "values": [
      {"measurement": "appearance of mice after dosing", "setting": "[1]", "value": "appeared normal"},
      {"measurement": "time mean total blood concentration above the desired concentration", "setting": "[2]", "value": "approximately 10 h"},
      {"measurement": "free concentration that leads to degradation of BCL6 in tumor", "setting": "BCL6 levels in tumor", "value": "> 1", "unit": "nM"},
      {"measurement": "time of maximal effect on tumor BCL6", "setting": "BCL6 levels in tumor", "value": "~4", "unit": "h"},
      {"measurement": "levels of BCL6 in the tumor", "setting": "BCL6 levels in tumor; OCI-Ly1 xenograft, up to 10 h after dosing", "value": "clear decrease in levels of BCL6 in the tumor"},
      {"measurement": "adverse events", "setting": "BCL6 levels in tumor; SCID mice", "value": "No visible adverse events were observed"}
    ]},
    {"smiles": "N#Cc1c(NCc2ccccc2)ccnc1Cl", "note": "[Compound 2]", "values": [
      {"measurement": "IC50", "setting": "BCL6 BTB", "value": "~100", "unit": "µM"}
    ]},
    {"smiles": "Cn1c(=O)n(C)c2cc(Nc3cc(SCc4ccccc4)ncn3)ccc21", "note": "[Compound 3]", "values": [
      {"measurement": "IC50", "setting": "BCL6 BTB", "value": "~100", "unit": "µM"}
    ]},
    {"smiles": "Cn1c(=O)n(C)c2cc(Nc3ccnc(Cl)c3C#N)ccc21", "note": "[Compound 6, 2-Chloro-4-((1,3-dimethyl-2-oxo-2,3-dihydro-1H-benzo[d]imidazol-5-yl)amino)nicotinonitrile]", "values": [
      {"measurement": "Aq. sol. (HPLC, shown in parentheses)", "setting": "HPLC solubility assay", "value": "(16) μM"},
      {"measurement": "PAMPA permeability (in words)", "setting": "PAMPA permeability", "value": "high PAMPA permeability"},
      {"measurement": "microsomal clearance (in words)", "setting": "Microsomal clearance", "value": "Low microsomal clearance"}
    ]},
    {"smiles": "Cn1c(=O)n(CCC(C)(C)O)c2cc(Nc3ccnc(Cl)c3C#N)ccc21", "note": "[Compound 17a, 2-Chloro-4-((3-(3-hydroxy-3-methylbutyl)-1-methyl-2-oxo-2,3-dihydro-1H-benzo[d]imidazol-5-yl)amino)nicotinonitrile]", "values": [
      {"measurement": "Aq. sol. (HPLC, shown in parentheses)", "setting": "HPLC solubility assay", "value": "(25) μM"}
    ]},
    {"smiles": "CC1CCCN(c2ncc(Cl)c(Nc3ccc4c(c3)n(CCC(C)(C)O)c(=O)n4C)n2)C1", "note": "(centres unmarked) [Compound 24a, 5-((5-Chloro-2-(3-methylpiperidin-1-yl)pyrimidin-4-yl)amino)-3-(3-hydroxy-3-methylbutyl)-1-methyl-1,3-dihydro-2H-benzo[d]imidazol-2-one]", "values": [
      {"measurement": "BCL6 degradation in the IF assay (in words)", "setting": "BCL6 [3]", "value": "identified as degraders"},
      {"measurement": "metabolism in mouse microsomes (in words)", "setting": "[4]", "value": "rapid metabolism"}
    ]},
    {"smiles": "C[C@@H]1C[C@H](C)CN(c2ncc(Cl)c(Nc3ccc4c(c3)n(CCC(C)(C)O)c(=O)n4C)n2)C1", "note": "[Compound 24b, 5-((5-Chloro-2-((3S,5R)-3,5-dimethylpiperidin-1-yl)pyrimidin-4-yl)amino)-3-(3-hydroxy-3-methylbutyl)-1-methyl-1,3-dihydro-2H-benzo[d]imidazol-2-one]", "values": [
      {"measurement": "BCL6 degradation in the IF assay (in words)", "setting": "BCL6 [3]", "value": "identified as degraders"},
      {"measurement": "metabolism in mouse microsomes (in words)", "setting": "[4]", "value": "rapid metabolism"},
      {"measurement": "BCL6 protein levels by Western blot, SU-DHL-4", "setting": "BCL6 [5]", "value": "concentration-dependent reduction in BCL6 protein levels"},
      {"measurement": "BCL6 protein levels by Western blot, OCI-Ly1", "setting": "BCL6 [6]", "value": "concentration-dependent reduction in BCL6 protein levels"}
    ]},
    {"smiles": "C[C@@H]1CN(c2ncc(Cl)c(Nc3ccc4c(c3)n(CCC(C)(C)O)c(=O)n4C)n2)C[C@H](C)O1", "note": "[Compound 25a, 5-((5-Chloro-2-((2R,6S)-2,6-dimethylmorpholino)pyrimidin-4-yl)amino)-3-(3-hydroxy-3-methylbutyl)-1-methyl-1,3-dihydro-2H-benzo[d]imidazol-2-one]", "values": [
      {"measurement": "BCL6 degradation in the IF assay (in words)", "setting": "BCL6 [3]", "value": "not capable of inducing BCL6 degradation"}
    ]},
    {"smiles": "C[C@@H]1CN(c2ncc(Cl)c(Nc3ccc4c(c3)n(CCC(C)(C)O)c(=O)n4C)n2)C[C@H](C)N1C", "note": "[Compound 25c, 5-((5-Chloro-2-((3S,5R)-3,4,5-trimethylpiperazin-1-yl)pyrimidin-4-yl)amino)-3-(3-hydroxy-3-methylbutyl)-1-methyl-1,3-dihydro-2H-benzo[d]imidazol-2-one]", "values": [
      {"measurement": "BCL6 degradation in the IF assay (in words)", "setting": "BCL6 [3]", "value": "not capable of inducing BCL6 degradation"}
    ]},
    {"smiles": "C[C@@H]1C[C@H](C)CN(c2cc(Nc3ccc4c(c3)n(CCC(C)(C)O)c(=O)n4C)c(Cl)cn2)C1", "note": "[Compound 26b, 5-((5-Chloro-2-((3S,5R)-3,5-dimethylpiperidin-1-yl)pyridin-4-yl)amino)-3-(3-hydroxy-3-methylbutyl)-1-methyl-1,3-dihydro-2H-benzo[d]imidazol-2-one]", "values": [
      {"measurement": "BCL6 degradation in the IF assay (in words)", "setting": "BCL6 [3]", "value": "identified as degraders"}
    ]},
    {"smiles": "COCC1CN(c2ncc(Cl)c(Nc3ccc4c(c3)n(CCC(C)(C)O)c(=O)n4C)n2)CCC1(F)F", "note": "(centres unmarked) [Compound 27f, 5-((5-Chloro-2-(4,4-difluoro-3-(methoxymethyl)piperidin-1-yl)pyrimidin-4-yl)amino)-3-(3-hydroxy-3-methylbutyl)-1-methyl-1,3-dihydro-2H-benzo[d]imidazol-2-one]", "values": [
      {"measurement": "BCL6 degradation in the IF assay (in words)", "setting": "BCL6 [3]", "value": "reduced degradation"}
    ]},
    {"smiles": "Cn1c(=O)n(CCC(C)(C)O)c2cc(Nc3nc(N4CCCC(C#N)C4)ncc3Cl)ccc21", "note": "(centres unmarked) [Compound 27g, 1-(5-Chloro-4-((3-(3-hydroxy-3-methylbutyl)-1-methyl-2-oxo-2,3-dihydro-1H-benzo[d]imidazol-5-yl)amino)pyrimidin-2-yl)piperidine-3-carbonitrile]", "values": [
      {"measurement": "BCL6 degradation in the IF assay (in words)", "setting": "BCL6 [3]", "value": "did not enable degradation"}
    ]},
    {"smiles": "Cn1c(=O)n(CCC(C)(C)O)c2cc(Nc3nc(N4CCC(C(F)(F)F)CC4)ncc3Cl)ccc21", "note": "[Compound 27h, 5-((5-Chloro-2-(4-(trifluoromethyl)piperidin-1-yl)pyrimidin-4-yl)amino)-3-(3-hydroxy-3-methylbutyl)-1-methyl-1,3-dihydro-2H-benzo[d]imidazol-2-one]", "values": [
      {"measurement": "BCL6 degradation in the IF assay (in words)", "setting": "BCL6 [3]", "value": "loss of degradation activity"}
    ]},
    {"smiles": "Cn1c(=O)n(CCC(C)(C)O)c2cc(Nc3nc(N4CC5CCC(C4)C5(F)F)ncc3Cl)ccc21", "note": "[Compound 28a, 5-((5-Chloro-2-(8,8-difluoro-3-azabicyclo[3.2.1]octan-3-yl)pyrimidin-4-yl)amino)-3-(3-hydroxy-3-methylbutyl)-1-methyl-1,3-dihydro-2H-benzo[d]imidazol-2-one]", "values": [
      {"measurement": "BCL6 degradation in the IF assay (in words)", "setting": "BCL6 [3]", "value": "loss of degradation activity"}
    ]},
    {"smiles": "Cn1c(=O)n(CCC(C)(C)O)c2cc(Nc3nc(N4C5CCC4CC(F)(F)C5)ncc3Cl)ccc21", "note": "[Compound 28b, 5-((5-Chloro-2-(3,3-difluoro-8-azabicyclo[3.2.1]octan-8-yl)pyrimidin-4-yl)amino)-3-(3-hydroxy-3-methylbutyl)-1-methyl-1,3-dihydro-2H-benzo[d]imidazol-2-one]", "values": [
      {"measurement": "BCL6 degradation in the IF assay (in words)", "setting": "BCL6 [3]", "value": "loss of degradation activity"}
    ]}
  ]
}
